According to US20170065564A1, “BIS-CYCLIC GUANIDINE COMPOUND COMPOSITIONS, METHODS OF USE AND TREATMENT THEREOF” (University of South Florida, priority 2014, published 2017):
Values after ≈ are worked out from the molar mass of the structure shown.

Legend:
Pseudomonas aeruginosa = assay: MIC micro broth dilution assay; type: cell-based; details: for concentration inhibiting 90% of isolates: panel of P. aeruginosa clinical isolates
Experimental: For this study we used a representative panel of multi-drug resistant clinical ESKAPE pathogen isolates (Supplemental Table S6).^42 43 3a, 44 45 Gram-positive organisms were grown in tryptic soy broth media (TSB), whilst Gram-negative organisms were grown in lysogeny Broth (LB), as described by us previously. ^43 MIC and MBC determination assays.
Broth cultures of ESKAPE strains were grown overnight before being diluted 1 in 1,000 in fresh media. Sterile 96-well plates were loaded with culture and compounds (in DMF) were added at decreasing concentrations to equal a total volume of 200 μl per well. Care was taken to not add more than 2.0% DMF to any well. Plates were then incubated at 37° C., and MICs determined after 24 hours by visual inspection for a lack of turbidity in wells. All assays were performed in triplicate with identical results obtained. For both the scaffold ranking and positional scanning samples, relative broad-spectrum activity was determined via stacked scores: […]

E. cloacae = type: cell-based, Enterobacter cloacae; details: 8 passages, concentration doubled each day
Experimental: ESKAPE pathogens were grown overnight in liquid media at 37° C. These cultures were then diluted 1:100 in fresh media, and seeded into a 96-well plate. Lead bis-cyclic guanidines or control agents were added to respective wells at half MIC concentrations. […] These were then grown overnight, and the procedure repeated for a total of eight days.

ESKAPE pathogens = assay: MIC micro broth dilution assay, statements and stacked scores over all ESKAPE pathogens; type: cell-based; details: for pathogens against which the compound showed activity at 4 ug/ml / pathogens against which the compound showed activity at 5 ug/ml / pathogens against which the compound showed activity at 10 ug/ml / pathogens against which the compound showed activity at 25 ug/ml: letters E,S,K,A,P,E = ESKAPE pathogens, — = none
Summary of the method: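 Overnight cultures of multidrug-resistant clinical isolates, diluted 1 in 1,000 (Gram-positives in TSB, Gram-negatives in LB), were exposed to decreasing compound concentrations in DMF (≤2.0%) at 37° C. MIC was read visually as no turbidity after 24 hours, in triplicate. Broad-spectrum activity was ranked by stacked scores.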

[1] = tested on: Staphylococcus aureus (USA300 strain FPR3757); assay: Murine model of lethal peritonitis; type: in vivo, mice; details: 2× MIC, I.M., 1 h post-infection, six mice per group
Experimental: Using MRSA as a representative ESKAPE organism, we infected mice with 1×10^8 bacterial cells in 5% mucin via intraperitoneal injection. At 1 h post-infection, mice were then I.V. injected with either vancomycin (positive control), or I.M. with our front runner compounds.
Six mice per group were injected with 1×10^8 CFU ml^−1 of Staphylococcus aureus (USA300 strain FPR3757) in PBS containing 5% mucin. […] Mice were monitored twice daily for five days to assess mortality. The clinical endpoint of this study was when the mice reached a pre-moribund state. Characteristics of pre-moribund state include: hunched posture, rapid, shallow and/or labored breathing, ruffled fur, lethargy, failure to respond to stimuli, soiled anogenital area, paralysis, paresis, head tilt, circling, vocalizations, non-purposeful movements and/or were unable to eat or drink. Those mice reaching this state prior to the completion of the 5 day infection period were euthanized. The number of mice surviving between control and treatment groups was compared and analyzed for statistical significance using a log rank test.

human A549 cells = assay: Cytotoxicity assay (MTT); type: cell-based; details: for IC50: MTT, 48 hours
Experimental: Cytotoxicity assays were performed using human A549 cells (adenocarcinomic human alveolar epithelial cells), as described by us previously.^44 Briefly, cells were cultured in F-12K Nutrient mixture (Kaighn's Modification) media containing L-glutamine, supplemented with 10% fetal bovine serum and 1% penicillin-streptomycin for 3 days at 37° and 5% CO2. Cells were then diluted to 1.0×10^5 ml^−1 using F-12K supplemented media, and added to 96 well tissue culture plates at a volume of 100 μl. Plates were incubated for 24 hours at 37° C. and 5% CO2, allowing the cells to adhere to the plastic. […] Plates were then incubated for 48 hours at 37° C. and 5% CO2. After 48 hours the media was removed, and new media added containing MTT (3-(4, 5-dimethylthiazol-2-yl)-2, 5-diphenyltetrazolium bromide), followed by incubation for four hours at 37° C. and 5% CO2. After 4 h, 50 μl of media was removed, replaced with DMSO and incubated for ten minutes at 37° C. in order to solubilize any formazan produced. A Biotek plate reader was used to measure the absorbance of formazan production at […], and IC50 values were determined for each of the five compounds. Front runners were solvated in 45% w/v (2-hydroxypropyl)-β-cyclodextrin in water for these studies; which was also used alone as a negative control. IC50 values were determined for each compound by comparison to vehicle only controls, to assess toxicity to human cells.

S. aureus = assay: Resistance serial passage assay; type: cell-based, Staphylococcus aureus; details: 8 passages, concentration doubled each day
Experimental: ESKAPE pathogens were grown overnight in liquid media at 37° C. These cultures were then diluted 1:100 in fresh media, and seeded into a 96-well plate. Lead bis-cyclic guanidines or control agents were added to respective wells at half MIC concentrations. Plates were then incubated for 24 hours at 37° C., with bacteria removed from these cultures on the following day, to inoculate fresh media (1:100 dilution) containing compounds at a 2-fold higher concentrations. These were then grown overnight, and the procedure repeated for a total of eight days. […] Each experiment was performed in triplicate, yielding identical results.

Acinetobacter baumannii = assay: MIC micro broth dilution assay; type: cell-based; design: key to stacked score activity, 100/MIC, A: stacked score = 100/MIC; details: for stacked score activity, 100/MIC, A: A. baumannii
Summary of the method: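 Multidrug-resistant clinical ESKAPE isolates were grown overnight (Gram-positives in TSB, Gram-negatives in LB), diluted 1:1,000 and exposed to decreasing compound concentrations in DMF (≤2.0% DMF).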

## CCCCCCCN1C(=N)N(CCCC[C@H]2CNC(=N)N2CCC23CC4CC(CC(C4)C2)C3)C[C@@H]1CCCC [Compound 19]
Pseudomonas aeruginosa; P. aeruginosa isolate 1414
  MIC: 5.0 µM (≈ 2.7 µg/mL)
Pseudomonas aeruginosa; P. aeruginosa isolate 1415
  MIC: 5.0 µM (≈ 2.7 µg/mL)
Pseudomonas aeruginosa; P. aeruginosa isolate 1416
  MIC: 3.0 µM (≈ 1.62 µg/mL)
Pseudomonas aeruginosa; P. aeruginosa isolate 1417
  MIC: 3.0 µM (≈ 1.62 µg/mL)
Pseudomonas aeruginosa; P. aeruginosa isolate 1418
  MIC: 7.0 µM (≈ 3.79 µg/mL)
Pseudomonas aeruginosa; P. aeruginosa isolate 1419
  MIC: 3.0 µM (≈ 1.62 µg/mL)
Pseudomonas aeruginosa; P. aeruginosa isolate 1420
  MIC: 5.0 µM (≈ 2.7 µg/mL)
Pseudomonas aeruginosa; P. aeruginosa isolate 1421
  MIC: 5.0 µM (≈ 2.7 µg/mL)
Pseudomonas aeruginosa; P. aeruginosa isolate 1422
  MIC: 5.0 µM (≈ 2.7 µg/mL)
Pseudomonas aeruginosa; P. aeruginosa isolate 1423
  MIC: 2.0 µM (≈ 1.08 µg/mL)
Pseudomonas aeruginosa
  concentration inhibiting 90% of isolates: 10 µM
Pseudomonas aeruginosa; purified compound, Table 1
  MIC: 1.66 µM (≈ 0.898 µg/mL)
E. cloacae
  increase in MIC after serial passage: 8 fold
ESKAPE pathogens
  pathogens against which the compound showed activity at 4 ug/ml: ESAP
  pathogens against which the compound showed activity at 5 ug/ml: ESKAPE
  pathogens against which the compound showed activity at 10 ug/ml: ESKAPE
  pathogens against which the compound showed activity at 25 ug/ml: ESKAPE
ESKAPE pathogens; stacked score over all ESKAPE pathogens (details in Table S4b)
  stacked score Total: 156
ESKAPE pathogens; sum over all six ESKAPE pathogens
  Total stacked score: 156
[1]
  survival of infected mice over 5 day infection period: only a single mouse succumbing to infection after the first day
Human A549 cells; 225 μM (highest concentration tested)
  A549 cell recovery compared to vehicle only controls: > 70%
Human A549 cells
  IC50: 146 µM
Human A549 cells; above 45 μM, at concentrations up to 225 μM
  A549 cell recovery compared to vehicle only controls: ≥ 26%
Human A549 cells; concentrations up to 45 μM
  A549 cell recovery compared to vehicle only controls: > 97%
S. aureus
  increase in MIC after serial passage: 16 fold
Acinetobacter baumannii
  stacked score activity, 100/MIC, A: 25
Acinetobacter baumannii; A. baumannii isolate 1403
  MIC: 2.0 µM (≈ 1.08 µg/mL)
Acinetobacter baumannii; A. baumannii isolate 1643
  MIC: 2.0 µM (≈ 1.08 µg/mL)
Acinetobacter baumannii; A. baumannii isolate 1644
  MIC: 2.0 µM (≈ 1.08 µg/mL)
Acinetobacter baumannii; A. baumannii isolate 1647
  MIC: 2.0 µM (≈ 1.08 µg/mL)
Acinetobacter baumannii; A. baumannii isolate 1648
  MIC: 2.0 µM (≈ 1.08 µg/mL)
Acinetobacter baumannii; A. baumannii isolate 1649
  MIC: 2.0 µM (≈ 1.08 µg/mL)
Acinetobacter baumannii; A. baumannii isolate 1650
  MIC: 2.0 µM (≈ 1.08 µg/mL)
Acinetobacter baumannii; A. baumannii isolate 1651
  MIC: 2.0 µM (≈ 1.08 µg/mL)
Acinetobacter baumannii; A. baumannii isolate 1653
  MIC: 2.0 µM (≈ 1.08 µg/mL)
Acinetobacter baumannii; A. baumannii isolate 1654
  MIC: 2.0 µM (≈ 1.08 µg/mL)
Acinetobacter baumannii; purified compound, Table 1
  MIC: 1.66 µM (≈ 0.898 µg/mL)

## CCCCCCCN1C(=N)N(CCCC[C@H]2CNC(=N)N2CCCCC2CCCCC2)C[C@@H]1CC1CCCCC1 [Compound 16]
Pseudomonas aeruginosa; Pseudomonas aeruginosa, P. aeruginosa isolate 1414
  MIC: 3 µM (≈ 1.67 µg/mL)
Pseudomonas aeruginosa; Pseudomonas aeruginosa, P. aeruginosa isolate 1415
  MIC: 3 µM (≈ 1.67 µg/mL)
Pseudomonas aeruginosa; Pseudomonas aeruginosa, P. aeruginosa isolate 1416
  MIC: 2 µM (≈ 1.11 µg/mL)
Pseudomonas aeruginosa; Pseudomonas aeruginosa, P. aeruginosa isolate 1417
  MIC: 3 µM (≈ 1.67 µg/mL)
Pseudomonas aeruginosa; Pseudomonas aeruginosa, P. aeruginosa isolate 1418
  MIC: 7 µM (≈ 3.9 µg/mL)
Pseudomonas aeruginosa; Pseudomonas aeruginosa, P. aeruginosa isolate 1419
  MIC: 3 µM (≈ 1.67 µg/mL)
Pseudomonas aeruginosa; Pseudomonas aeruginosa, P. aeruginosa isolate 1420
  MIC: 3 µM (≈ 1.67 µg/mL)
Pseudomonas aeruginosa; Pseudomonas aeruginosa, P. aeruginosa isolate 1421
  MIC: 3 µM (≈ 1.67 µg/mL)
Pseudomonas aeruginosa; Pseudomonas aeruginosa, P. aeruginosa isolate 1422
  MIC: 3 µM (≈ 1.67 µg/mL)
Pseudomonas aeruginosa; Pseudomonas aeruginosa, P. aeruginosa isolate 1423
  MIC: 2 µM (≈ 1.11 µg/mL)
Pseudomonas aeruginosa; Pseudomonas aeruginosa, purified compound, Table 1
  MIC: 1.62 µM (≈ 0.902 µg/mL)
Pseudomonas aeruginosa
  concentration inhibiting 90% of isolates: 5 µM
E. cloacae
  increase in MIC after serial passage: 8 fold
ESKAPE pathogens
  pathogens against which the compound showed activity at 4 ug/ml: EAP
  pathogens against which the compound showed activity at 5 ug/ml: ESKAPE
  pathogens against which the compound showed activity at 10 ug/ml: ESKAPE
  pathogens against which the compound showed activity at 25 ug/ml: ESKAPE
[1]
  survival of infected mice over 5 day infection period: only a single mouse succumbing to infection after the first day
Human A549 cells; Homo sapiens, A549
  IC50: > 225 µM
S. aureus
  increase in MIC after serial passage: 16 fold
Acinetobacter baumannii
  stacked score activity, 100/MIC, A: 33
Acinetobacter baumannii; Acinetobacter baumannii, A. baumannii isolate 1403
  MIC: 2 µM (≈ 1.11 µg/mL)
Acinetobacter baumannii; Acinetobacter baumannii, A. baumannii isolate 1643
  MIC: 2 µM (≈ 1.11 µg/mL)
Acinetobacter baumannii; Acinetobacter baumannii, A. baumannii isolate 1644
  MIC: 2 µM (≈ 1.11 µg/mL)
Acinetobacter baumannii; Acinetobacter baumannii, A. baumannii isolate 1647
  MIC: 2 µM (≈ 1.11 µg/mL)
Acinetobacter baumannii; Acinetobacter baumannii, A. baumannii isolate 1648
  MIC: 2 µM (≈ 1.11 µg/mL)
Acinetobacter baumannii; Acinetobacter baumannii, A. baumannii isolate 1649
  MIC: 2 µM (≈ 1.11 µg/mL)
Acinetobacter baumannii; Acinetobacter baumannii, A. baumannii isolate 1650
  MIC: 2 µM (≈ 1.11 µg/mL)
Acinetobacter baumannii; Acinetobacter baumannii, A. baumannii isolate 1651
  MIC: 2 µM (≈ 1.11 µg/mL)
Acinetobacter baumannii; Acinetobacter baumannii, A. baumannii isolate 1653
  MIC: 2 µM (≈ 1.11 µg/mL)
Acinetobacter baumannii; Acinetobacter baumannii, A. baumannii isolate 1654
  MIC: 2 µM (≈ 1.11 µg/mL)
Acinetobacter baumannii; Acinetobacter baumannii, purified compound, Table 1
  MIC: 1.62 µM (≈ 0.902 µg/mL)
